The test system of data set [1] is Hepatitis B virus. As to the kind of experiment: Antiviral activity against HBV infected human HePAD38 cells assessed as reduction in intracellular capsid content at 1 uM incubated for 6 days. In kind it is functional, organism-based. Particulars: time 6.0 day.
The nature of data set [2]: Cytotoxicity against human HePAD38 cells assessed as reduction in cell viability by CCK-8 assay. It is filed as toxicity, cell-based.
In data set [3] the test system is Hepatitis B virus. The experiment in a line: Antiviral activity against HBV infected human HePAD38 cells assessed as reduction of HBV DNA level with compound replacement for every 3 days and measured on day 6 by qPCR analysis. It is filed as functional, organism-based.
For another data set, the target named is CYP2D6 (Homo sapiens, UniProt P10635). As to the kind of experiment: Inhibition of CYP2D6 (unknown origin) at 10 uM using dextromethorphan as substrate incubated for 10 mins in presence of NADPH by LC-MS/MS analysis relative to control. It is filed as ADME. The settings on record: probe dextromethorphan.

Activity calls are given as the source filed them. The calls are words filed in the database; no cut-off is given here. Some results are limits rather than exact numbers.

Chain of CYP2D6 (P10635 whole entry): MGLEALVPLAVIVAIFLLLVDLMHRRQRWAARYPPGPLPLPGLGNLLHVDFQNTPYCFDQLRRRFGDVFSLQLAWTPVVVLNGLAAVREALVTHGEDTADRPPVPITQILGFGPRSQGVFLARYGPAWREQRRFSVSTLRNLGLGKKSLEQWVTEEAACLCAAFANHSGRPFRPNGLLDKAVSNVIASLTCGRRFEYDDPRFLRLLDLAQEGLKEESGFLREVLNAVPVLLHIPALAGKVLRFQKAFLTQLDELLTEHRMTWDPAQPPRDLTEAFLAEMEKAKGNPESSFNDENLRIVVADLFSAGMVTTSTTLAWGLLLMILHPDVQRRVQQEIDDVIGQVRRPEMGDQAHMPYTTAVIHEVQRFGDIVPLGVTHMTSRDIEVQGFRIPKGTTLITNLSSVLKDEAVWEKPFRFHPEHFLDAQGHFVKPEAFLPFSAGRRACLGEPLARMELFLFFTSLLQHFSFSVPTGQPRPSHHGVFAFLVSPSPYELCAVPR

Turning to `Nc1ccn([C@@H]2CS[C@H](CO)O2)c(=O)n1` [LAMIVUDINE], in the data set with Hepatitis B virus [1], the result was inactive. Further, the CC50 in data set [2] was greater than 50000 nM. Besides, in the data set on Hepatitis B virus [3], the EC50 was 90 nM.

With `C=C[C@H]1C[N@@]2CC[C@H]1C[C@@H]2[C@@H](O)c1ccnc2ccc(OC)cc12` [QUINIDINE], on CYP2D6, the inhibition at 10 min, 10 µM turned out to be 95.6%.

By CC50 is commonly meant the concentration at which the toxic effect on the cells reaches its halfway point. As usually defined, the EC50 is the concentration needed to bring the measured effect to its halfway point. One may read the inhibition as the relative decrease from the control value, in per cent.
